Experimental data taken from patent US3974187A, “Synthetic analogs having the activity of naturally occurring forms of coenzyme Q” (priority 1975, dated 1976).

Experiments:
[1] = tested on: oxidative phosphorylation at site I (ETPH particles); assay: Assay of CoQ and analogs for oxidative phosphorylation at site I with ETPH particles; format: biochemical; design: Δ NADH / Δ G6P: unit not given here; conditions: for P/NADH Ratio / Δ G6P / Δ NADH / μmoles NADH /min/mg / μmoles NADH min/mg +Rotenone / % Inhibition by Rotenone: CoQ or analog 0.12 nM (footnote 0.12 mM); for μmoles NADH /min/mg: 200 μg ETPH particles, no rotenone; for μmoles NADH min/mg +Rotenone / % Inhibition by Rotenone: rotenone 2 μM
Method: Assays were performed with 200 μg of ETPH particles as described by
Schatz and Racker (J. Biol. Chem., 241, 1429 (1966)). The concentration o
the CoQ compounds was 0.12 mM. Rotenone was added at 2 μM

Chemical stability = format: physicochemical; conditions: compared with CoQ1 and CoQ2
complex III = complex III (Bos taurus, UniProt P00157+P13272); assay: Reduction of cytochrome c by reduced CoQ and analogs catalyzed by complex III; format: biochemical; conditions: for nMoles Cytochrome c Reduced/min / Non-enzymatic Rate of Cytochrome c Reduction: 10 μM reduced CoQ or analog; for nMoles Cytochrome c Reduced/min: 2 μg complex III, 8 μM cytochrome c; for Non-enzymatic Rate of Cytochrome c Reduction: blank without complex III; for % Inhibition by Antimycin A: antimycin A 1 μg/ml
Method: Reduction of cytochrome c was measured at 550-540 nm. The reaction mixtur
contained in 1.0 ml: […] KP1, pH 7.5; 0.05 mM EDTA; 8 μM
cytochrome c1; 10 μM reduced CoQ or analog and 2 μg complex
III. When indicated, antimycin A was added to the assay medium at 1
μg/ml. An extinction coefficient of 19 mM^-^1 was used for […]

[2] = tested on: succinoxidase system of beef heart mitochondria; assay: CoQ activity: restoring succinoxidase activity of pentane-extracted beef heart mitochondria (manometric); format: biochemical; design: key to CoQ10 Act. Index: activity index relative to CoQ10 standard; conditions: for Activation at 400 nMoles %: 400 nmoles of analog, relative to the response to 400 nmoles CoQ10; for Maximum Activation: 400 nm of analog per flask, percent of the response to CoQ4; for CoQ10 Act. Index: calculated from relative effectiveness, activity in terms of that of CoQ10; for effectiveness / utilization in the succinoxidase mitochondrial system / ability to elicit maximum activation of succinoxidase: interpretation of Table II; for Estimated nMoles Required for 50% Activation: level required to reinstate approximately 50% of maximum succinoxidase activity, 0.65-0.85 mg PEBHM; for Relative Effectiveness: molar amounts of analog and CoQ4 required to restore the same level of succinoxidase to PEBHM, relative to CoQ4
Method: The CoQ activity of each analog was assessed by examining the ability of the analog to stimulate the succinoxidase activity of beef-heart mitochondria (BHM) from which the naturally occurring CoQ had been removed by pentane extraction. (Table I) Beef heart mitochondria were prepared by the method of Smith (Methods Enzymol., 10, 81 (1967). The pentane extraction was conducted as described by Szarkowska (Arch. Biochem. Biophys., 113, 519 (1966); PEBHM was frozen and used within 10 days of preparation, since pentane extraction decreases the stability of BHM. Succinoxidase activity was determined manometercally, using a Gilson differential respirometer (Iwamoto, Y., Hansen, I. L., Porter, T. H., and Folkers, K., Biochem. Biophys. Res. Comm., 58, 633 (1974), and is reported as […] of oxygen per minute per milligram of protein. A commercial soybean phospholipid preparation (Asolectin), dispersed by sonication (Fleischer, S. and Fleischer, B., Methods Enzymol., 10, 421 (1967), was used to provide phospholipid micelles, and test substances were added as solutions in ethanol. Within Table I are listed the CoQ activities of the analogs and selected reference compounds. The CoQ10 Activity Index is a measure of the effectiveness of the analogs, relative to the standard, in stimulating a submaximal response of succinoxidase activity. Specific activity of the succinoxidase system in response to stimulation by exogenous CoQ10 is given in footnote a of the Table. The quantity of analog to be added was chosen to provide a level of succinoxidase activity corresponding to the nearly linear portion of the activity: dose curve, in which succinoxidase activity stimulated is approximately proportional to the level of analog used. The second column lists the nanomolar quantity of analog required to provide a stimulation of about half of the maximum response. The relative response of the succinoxidase system to 400 nmol of each analog is listed in the third column of the Table. This level of analog is sufficient to insure significant excess over the stoichiometric amount, and maximum response to CoQ4 is obtained at one-tenth to one-twentieth of this dose level. The response to 400 nmol of CoQ10 is lower than is the response to other components listed. The very long side-chain of CoQ10, the natural coenzyme, may hinder the transport of exogenous CoQ10 to the active site.

[3] = literature / general knowledge; cited from earlier work

Row | SMILES | Activation at 400 nMoles % [2] | Maximum Activation [2] | CoQ10 Act. Index [2] | Estimated nMoles Required for 50% Activation [2] | Relative Effectiveness [2] | further results
1 | CCCCCCCCCCC1=C(C)C(=O)C(OC)=C(OC)C1=O [Decyl, 2,3-Dimethoxy-5-methyl-6-decyl-1,4-benzoquinone] | 123% | 96% | 11.7 | 3.6 nmol | 56% | P/NADH Ratio [1]: 0.46; Δ G6P [1]: 0.039; Δ NADH [1]: 0.085; μmoles NADH /min/mg [1]: 0.52 μmoles NADH /min/mg; μmoles NADH min/mg +Rotenone [1]: 0 μmoles NADH min/mg; biochemical effectiveness in the site I assay system ([1]; compared with CoQ1): as biochemically effective as CoQ1; % Inhibition by Rotenone [1]: 100%; chemical stability (Chemical stability; listed as 6-n-decyl): superior to CoQ1 and CoQ2 in chemical stability; chemical stability (Chemical stability; listed as DB): apparent greater stability; nMoles Cytochrome c Reduced/min (complex III): 29.0 nmol/min; Non-enzymatic Rate of Cytochrome c Reduction (complex III): 0.2 nmol/min; response of complex III system to the reduced analog as substrate (complex III; after reduction and extraction): excellent substrates; % Inhibition by Antimycin A (complex III): 98%; effectiveness / utilization in the succinoxidase mitochondrial system [2]: effective
2 | COC1=C(OC)C(=O)C(C/C=C(\C)CC/C=C(\C)CC/C=C(\C)CCC=C(C)C)=C(C)C1=O [CoQ4, reference compound] | 128% | 100% | 20.8 | 2.0 nmol | 100% | amount giving full restoration of activity of succinoxidase in PEBHM [2]: more than 20 nmoles; maximum activity of succinoxidase in PEBHM ([2]; full restoration, more than 20 nmoles of CoQ4): 0.700 μatm O2 /mg protein min; ability to elicit maximum activation of succinoxidase [2]: can elicit maximum activation; effectiveness / utilization in the succinoxidase mitochondrial system [2]: effectively utilized
3 | CCCCCCCCCCCCCCCCCCCCC1=C(C)C(=O)C(OC)=C(OC)C1=O [Eicosyl, 2,3-Dimethoxy-5-methyl-6-n-eicosyl-1,4-benzoquinone] | 79% | 62% | 0.9 | 44.4 nmol | 4.5% | ability to elicit maximum activation of succinoxidase [2]: cannot stimulate maximum activation
4 | CCCCCC=CCC=CCCCCCCCC1=C(C)C(=O)C(OC)=C(OC)C1=O [8', 11'-Heptadecadienyl, 2,3-Dimethoxy-5-methyl-6-(8',11'-heptadecadienyl)-1,4-benzoquinone] | 122% | 95% | 9.0 | 4.7 nmol | 43% | –
5 | CCCCCC=CCC=CCCCCCCCCCC1=C(C)C(=O)C(OC)=C(OC)C1=O [10', 13'-Nonadecadienyl] | 123% | 96% | 7.3 | 5.7 nmol | 35% | –
6 | CCCCCC=CCC=CCC=CCC=CCCCC1=C(C)C(=O)C(OC)=C(OC)C1=O [4', 7', 10', 13'-Nonadecatetraenyl, 2,3-Dimethoxy-5-methyl-6-(4',7',10',13'-nonadecatetraenyl)-1,4-benzoquinone] | 118% | 92% | 7.7 | 5.4 nmol | 37% | –
7 | CCCCCCC=CCCCCCCCC1=C(C)C(=O)C(OC)=C(OC)C1=O [8'-Pentadecenyl] | 119% | 93% | 11.1 | 3.4 nmol | 58% | –
8 | COC1=C(OC)C(=O)C(C/C=C(\C)CC/C=C(\C)CC/C=C(\C)CC/C=C(\C)CC/C=C(\C)CC/C=C(\C)CCC=C(C)C)=C(C)C1=O [CoQ7, reference compound] | 115% | 90% | 1.7 | 24.4 nmol | 8.2% | –
9 | CCCCCCCCC=CCCCCCCCCCC1=C(C)C(=O)C(OC)=C(OC)C1=O [10'-Nonadecenyl, 2,3-Dimethoxy-5-methyl-6-(10'-nonadecenyl)-1,4-benzoquinone] | 123% | 96% | 5.8 | 7.1 nmol | 28% | –
10 | COC1=C(OC)C(=O)C(C/C=C(\C)CCC=C(C)C)=C(C)C1=O [Q2, reference compound] | – | – | – | – | – | P/NADH Ratio [1]: 0.57; Δ G6P [1]: 0.045; Δ NADH [1]: 0.079; μmoles NADH /min/mg [1]: 0.25 μmoles NADH /min/mg; μmoles NADH min/mg +Rotenone [1]: 0.02 μmoles NADH min/mg; % Inhibition by Rotenone [1]: 92%; chemical stability of isoprenoid quinones [3]: relative chemical instability; nMoles Cytochrome c Reduced/min (complex III): 27.4 nmol/min; Non-enzymatic Rate of Cytochrome c Reduction (complex III): 0.2 nmol/min; % Inhibition by Antimycin A (complex III): 98%
11 | COC1=C(OC)C(=O)C(CC=C(C)C)=C(C)C1=O [Q1, reference compound] | – | – | – | – | – | P/NADH Ratio [1]: 0.522; Δ G6P [1]: 0.046; Δ NADH [1]: 0.088; μmoles NADH /min/mg [1]: 0.45 μmoles NADH /min/mg; μmoles NADH min/mg +Rotenone [1]: 0.03 μmoles NADH min/mg; % Inhibition by Rotenone [1]: 93%; chemical stability of isoprenoid quinones [3]: relative chemical instability; nMoles Cytochrome c Reduced/min (complex III): 12.4 nmol/min; Non-enzymatic Rate of Cytochrome c Reduction (complex III): 0.6 nmol/min; % Inhibition by Antimycin A (complex III): 100%
12 | CCC=CCC=CCC=CCCCCCCCCCC1=C(C)C(=O)C(OC)=C(OC)C1=O [10', 13', 16'-Nonadecatrienyl, 2,3-Dimethoxy-5-methyl-6-(10',13' ,16'-nonadecatrienyl)-1,4-benzoquinone] | 128% | 100% | 10.2 | 4.1 nmol | 49% | –
13 | CCC=CCC=CCC=CCCCCCCCC1=C(C)C(=O)C(OC)=C(OC)C1=O [8', 11', 14'-Heptadecatrienyl, 2,3 -Dimethoxy-5-methyl-6-(8',11',14'-heptadecatrienyl)-1,4-benzoquinone] | 123% | 96% | 12.5 | 3.3 nmol | 60% | –
14 | CC(C)=CCC/C(C)=C/CC/C(C)=C/CC1=CC(=O)C(C)=C(C)C1=O [plastoquinone-3] | – | – | – | – | – | chemical stability of isoprenoid quinones [3]: extremely unstable
15 | CCCCCCCCC=CCCCCCCCC1=C(C)C(=O)C(OC)=C(OC)C1=O [8'-Heptadecenyl, 2,3-Dimethoxy-5-methyl-6-(8'-heptadecenyl)-1,4-benzoquinone] | 121% | 94% | 5.8 | 7.1 nmol | 28% | –
